These are literature values, as cited in patent US20100129295A1, “Compositions for preventing and/or treating gingivitis” (priority 2008, published 2010).

The conditions of data set [1]: females taking supplements; 27 females with gingivitis compared with women without.
The target in another data set is TNF-α (Homo sapiens, UniProt P01375).
Data set [2] concerns TNF-α induced cellular responses.

TNF-α, sequence (P01375 whole entry, species assumed): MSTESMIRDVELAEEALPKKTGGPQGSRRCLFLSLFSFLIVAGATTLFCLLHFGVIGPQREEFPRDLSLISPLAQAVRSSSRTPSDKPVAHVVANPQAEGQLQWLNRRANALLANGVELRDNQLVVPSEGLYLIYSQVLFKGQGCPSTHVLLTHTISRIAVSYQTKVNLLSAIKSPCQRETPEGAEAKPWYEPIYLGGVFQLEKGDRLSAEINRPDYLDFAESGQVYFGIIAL

In the case of `Cc1cc2nc3c(=O)[nH]c(=O)nc-3n(C[C@H](O)[C@H](O)[C@H](O)CO)c2cc1C` [vitamin B2], the risk of gingivitis result in data set [1] is listed as “reduced risk”.
With `[Ca+2]` [calcium], the risk of gingivitis entry in data set [1] is “reduced risk”.
With `C/C(O)=C(\C#N)C(=O)Nc1ccc(C(F)(F)F)cc1` [A 771726, teriflunomide], in the data set with Kupffer cells, the “TNF-α and IL-1 from Kupffer cells” value is given as “inhibits”.
Turning to `Cc1cc(C(=O)Nc2ccc(Cl)cc2)no1` [UTL-5d], the “inhibition of TNF-α” value at TNF-α is on record as “inhibition”.
Regarding `Cc1oncc1C(=O)Nc1ccc(C(F)(F)F)cc1` [leflunomide], in data set [2], the “TNF-α induced cellular responses” value was “suppresses”.
